# Reference: patent publication US20240076609A1, “COMPOSITIONS AND METHODS FOR CULTURING AND EXPANDING CELLS” (LIFE TECHNOLOGIES CORPORATION, priority 2017, published 2024)
# Values joined by “and” are separate entries in the source; they are usually repeats but may differ in a detail not shown here. Equal values may be shown once. “Also recorded” adds a separate entry of the source.
# Columns and labels:
# Naïve T cells [1] = experiment: Expansion of naïve T cells with 2-DG; assay type: cell-based, human; details: 4 mM 2-DG
# Description: T cell activation and expansion: T cells (seeding density 1×10^6 vc/mL) were activated with DYNABEADS® Human T-Expander CD3/CD28 (Thermo Fisher Scientific, Cat. No. 11141D) at a ratio of 3 beads per T cell and cultured in serum-free medium, animal origin free medium. T cells were counted on days 5, 7, 10, and 12 on a Vi-CELL XR analyzer (Beckman Coulter, Indianapolis IN) and fed with or without 2-DG (0.25 mM, 0.5 mM, 1 mM, 2 mM, and 4 mM) and 5% human AB serum to a density of 5×10^5 vc/mL on days 3, 5, and 7 and 1×10^6 vc/mL on day 10. For some studies, CD8+ and CD4+ T cells were isolated from PBMCs by negative selection using Untouched Human CD8+ and CD4+ T Cells Kits. Naïve and non-naïve T cells were isolated from enriched T cells by positive selection using CD45RA nanobeads (Miltenyi). […]
# Naïve T cells [2] = experiment: CD8+/CD4+ phenotype after 10 days with 2-DG in naïve T cells; assay type: cell-based, human; details: 4 mM 2-DG
# Description: (§1) For some studies, CD8+ and CD4+ T cells were isolated from PBMCs by negative selection using Untouched Human CD8+ and CD4+ T Cells Kits. Naïve and non-naïve T cells were isolated from enriched T cells by positive selection using CD45RA nanobeads (Miltenyi). Phenotype: Primary human T cells were expanded for 10 days with and without 2-DG and 5% human AB serum. DYNABEADS® were removed from 2×10^6 cells by magnetic separation. Surface staining was performed with antibodies against CD3 (Invitrogen, Cat. No. CD0329), CD4 (Molecular Probes, Cat. No. A15858), CD8 (Invitrogen, Cat. No. MHCD0828). Flow cytometric analysis was performed on a Gallios flow cytometer and Kaluza software (Beckman Coulter, Indianapolis IN). For some studies, CD8+ and CD4+ T cells were isolated from PBMCs by negative selection using Untouched Human CD8+ and CD4+ T Cells Kits. Naïve and non-naïve T cells were isolated from enriched T cells by positive selection using CD45RA nanobeads (Miltenyi). Phenotype: Primary human T cells were expanded for 10 days with and without 2-DG and 5% human AB serum. DYNABEADS® were removed from 2×10^6 cells by magnetic separation. Surface staining was performed with antibodies against CD3 (Invitrogen, Cat. No. CD0329), CD4 (Molecular Probes, Cat. No. A15858), CD8 (Invitrogen, Cat. No. MHCD0828). Flow cytometric analysis was performed on a Gallios flow cytometer and Kaluza software (Beckman Coulter, Indianapolis IN).
# Non-naïve T cells = experiment: CD8+/CD4+ phenotype after 10 days with 2-DG in non-naïve T cells; assay type: cell-based, human; details: 4 mM 2-DG
# Description: as §1
# Primary human T cells = experiment: Cytokine production upon re-stimulation (35-Plex Luminex) with 2-DG; assay type: cell-based; details: expanded 12 days, multiplexed cytokine assay
# Description: Cytokine Profiles: Primary human T cells from normal donors were negatively isolated from PBMCs with the DYNABEADS® UNTOUCHED™ Human T Cells kit (Thermo Fisher Scientific, Cat. No. 11344D). T cells (seeding density 1×10^6 vc/mL) were activated with DYNABEADS® Human T-Expander CD3/CD28 (Thermo Fisher Scientific, Cat. No. 11141D) at a ratio of 3 beads per T cell and cultured in serum-free and animal origin free medium or control medium X-VIVO™ 15 (Lonza, Cat. No. BE02-054Q) supplemented with 5% human AB serum. T cells were counted on days 5, 7, 10, and 12 on a Vi-CELL XR analyzer (Beckman Coulter, Indianapolis IN) and fed to a density of 5×10^5 vc/mL on days 3, 5, and 7 and to a density of 1×10^6 vc/mL on day 10. DYNABEADS® were magnetically removed from cultures on day 10 and cells were spun to remove conditioned medium and rested overnight in fresh medium. […]
# T cells were expanded for 12 days and re-stimulated with DYNABEADS® Human T-Expander CD3/CD28. Cytokine production upon re-stimulation was assessed with Invitrogen Cytokine Human Magnetic 35-Plex Panel for LUMINEX™. […]
# T cells were expanded for 12 days and re-stimulated with DYNABEADS® Human T-Expander CD3/CD28. Cytokine production upon re-stimulation was assessed with Invitrogen Cytokine Human Magnetic 35-Plex Panel for LUMINEX™.
# [3] = Day 10, non-naïve T cells, replicates
compound,measurement,setting,value
"O=CC[C@@H](O)[C@H](O)[C@H](O)CO [2-DG, 2-Deoxy-D-Glucose]",effect of 2-DG on growth of naïve T cells,Naïve T cells [1]; 12 days,did not affect growth of either cell type
same,Cultured Naïve T Cell Population Doublings,Naïve T cells [1]; day 5,1.70
same,Cultured Naïve T Cell Population Doublings,Naïve T cells [1]; day 7,3.92
same,Cultured Naïve T Cell Population Doublings,Naïve T cells [1]; day 10,5.45
same,Cultured Naïve T Cell Population Doublings,Naïve T cells [1]; day 12,6.13
same,% CD4+ (Avg),Naïve T cells [2]; Day 10,59.69%
same,% CD8+ (Avg),Naïve T cells [2]; Day 10,36.66%
same,% Ratios (CD8+/CD4+),Naïve T cells [2]; Day 10,2.07
same,% CD4+,"Naïve T cells [2]; Day 10, replicates",25.82% and 25.23%
same,% CD8+,"Naïve T cells [2]; Day 10, replicates",52.71% and 53.26%
same,Fold Increase compared to Baseline,Naïve T cells [2]; Day 10 vs Day 0,3.38
same,effect on CD8+:CD4+ ratio in non-naïve T cells,Non-naïve T cells; 10 days,lesser effect
same,% CD4+ (Avg),"Non-naïve T cells; Day 10, non-naïve T cells",81.08%
same,% CD8+ (Avg),"Non-naïve T cells; Day 10, non-naïve T cells",12.23%
same,% Ratios (CD8+/CD4+),"Non-naïve T cells; Day 10, non-naïve T cells",0.15
same,% CD4+,Non-naïve T cells; [3],80.85% and 81.31%
same,% CD8+,Non-naïve T cells; [3],12.23%
same,Fold Increase compared to Baseline,"Non-naïve T cells; Day 10 vs Day 0, non-naïve T cells",0.35
same,cytokine production / function of the cells upon re-stimulation,Primary human T cells,no change in cytokine production; also recorded: does not alter the function of the cells
